{"source": "ChEMBL document CHEMBL1201862", "about": "“PubChem BioAssay data set” (2004)", "key": {"[1]": {"biological_target": "T1, Short transient receptor potential channel 4 (Mus musculus, UniProt Q9QUQ5)", "T1 sequence (Q9QUQ5 whole entry)": "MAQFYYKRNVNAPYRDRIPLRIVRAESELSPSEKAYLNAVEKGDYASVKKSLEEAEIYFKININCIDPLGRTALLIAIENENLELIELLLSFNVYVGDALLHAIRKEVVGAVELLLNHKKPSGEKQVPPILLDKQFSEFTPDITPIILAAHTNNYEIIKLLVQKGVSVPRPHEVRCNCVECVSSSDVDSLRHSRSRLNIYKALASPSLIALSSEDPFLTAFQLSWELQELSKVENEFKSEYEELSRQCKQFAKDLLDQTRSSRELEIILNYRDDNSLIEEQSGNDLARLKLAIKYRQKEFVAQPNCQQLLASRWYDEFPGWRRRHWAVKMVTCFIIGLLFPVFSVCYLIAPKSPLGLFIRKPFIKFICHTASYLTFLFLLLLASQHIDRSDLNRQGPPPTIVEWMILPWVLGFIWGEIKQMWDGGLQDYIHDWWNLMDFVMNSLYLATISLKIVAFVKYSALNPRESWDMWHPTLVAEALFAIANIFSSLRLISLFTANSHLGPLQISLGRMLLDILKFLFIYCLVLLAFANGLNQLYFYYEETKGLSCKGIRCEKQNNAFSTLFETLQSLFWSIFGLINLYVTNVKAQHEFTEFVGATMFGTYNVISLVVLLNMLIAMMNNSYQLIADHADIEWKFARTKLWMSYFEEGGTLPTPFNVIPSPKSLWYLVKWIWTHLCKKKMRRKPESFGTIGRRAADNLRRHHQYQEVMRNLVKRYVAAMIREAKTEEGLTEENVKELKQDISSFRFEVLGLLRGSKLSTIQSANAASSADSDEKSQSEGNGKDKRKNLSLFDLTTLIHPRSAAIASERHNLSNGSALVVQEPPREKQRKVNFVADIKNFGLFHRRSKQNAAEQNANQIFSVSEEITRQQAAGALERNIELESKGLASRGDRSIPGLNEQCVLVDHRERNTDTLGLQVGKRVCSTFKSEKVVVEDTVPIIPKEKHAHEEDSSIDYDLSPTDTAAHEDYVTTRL", "assay": "mouse TRPC4 channel activators, dose response, cell-based, HEK293 TRPC4/mu-opioid, Fluo-4 calcium (AID 434937)", "type": "functional"}, "Vero": {"test_system": "Vero", "assay": "cells", "type": "functional", "conditions": "Chlorocebus sabaeus"}, "[2]": {"biological_target": "T2, Corticotropin-releasing factor receptor 2/Corticotropin-releasing factor-binding protein (Homo sapiens, UniProt P24387+Q13324)", "T2 sequence (Q13324 whole entry)": "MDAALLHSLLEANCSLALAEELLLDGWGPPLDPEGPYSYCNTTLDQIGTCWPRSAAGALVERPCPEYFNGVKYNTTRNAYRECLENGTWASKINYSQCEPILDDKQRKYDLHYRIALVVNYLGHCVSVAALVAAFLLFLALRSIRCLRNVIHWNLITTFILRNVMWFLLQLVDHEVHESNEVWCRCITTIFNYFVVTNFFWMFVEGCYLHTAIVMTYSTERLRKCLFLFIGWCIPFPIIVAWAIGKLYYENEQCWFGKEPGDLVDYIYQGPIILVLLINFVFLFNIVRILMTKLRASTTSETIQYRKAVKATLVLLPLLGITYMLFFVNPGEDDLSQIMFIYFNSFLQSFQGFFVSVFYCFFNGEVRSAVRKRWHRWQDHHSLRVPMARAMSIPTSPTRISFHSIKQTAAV", "T2 sequence (P24387 whole entry)": "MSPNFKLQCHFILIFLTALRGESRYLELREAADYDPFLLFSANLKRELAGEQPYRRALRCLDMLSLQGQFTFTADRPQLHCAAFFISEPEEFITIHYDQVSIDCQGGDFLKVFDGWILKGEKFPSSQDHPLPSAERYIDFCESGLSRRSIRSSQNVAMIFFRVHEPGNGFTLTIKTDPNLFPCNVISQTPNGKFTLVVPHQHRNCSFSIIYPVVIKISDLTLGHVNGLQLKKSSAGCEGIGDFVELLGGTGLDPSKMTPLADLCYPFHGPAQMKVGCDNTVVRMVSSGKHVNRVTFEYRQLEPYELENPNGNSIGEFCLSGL", "assay": "activators of CRF receptor 2 with binding protein – uHTS hits, confirmation (AID 602473)", "type": "functional", "conditions": "read-out: EC50_Mean"}, "Streptokinase A": {"biological_target": "T3, Streptokinase A (Streptococcus pyogenes serotype M1, UniProt P10520)", "T3 sequence (P10520 whole entry)": "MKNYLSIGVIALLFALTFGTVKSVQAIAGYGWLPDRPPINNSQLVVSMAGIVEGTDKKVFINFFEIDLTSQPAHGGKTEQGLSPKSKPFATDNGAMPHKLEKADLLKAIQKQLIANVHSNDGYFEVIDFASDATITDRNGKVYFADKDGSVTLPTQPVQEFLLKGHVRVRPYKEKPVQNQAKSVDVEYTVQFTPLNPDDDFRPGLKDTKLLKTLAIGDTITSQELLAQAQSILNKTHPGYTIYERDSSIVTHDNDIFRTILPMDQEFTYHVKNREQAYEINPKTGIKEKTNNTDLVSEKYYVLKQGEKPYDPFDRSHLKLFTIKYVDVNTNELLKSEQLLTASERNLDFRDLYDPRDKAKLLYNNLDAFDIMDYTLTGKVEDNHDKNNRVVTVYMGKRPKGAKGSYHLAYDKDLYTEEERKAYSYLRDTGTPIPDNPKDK", "assay": "S. pyogenes streptokinase expression inhibitors, potency, dose response, plasminogen activation absorbance, OD405 (AID 1914);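 also: secreted streptokinase activity via plasminogen activation per viability signal from cell pellet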", "type": "functional, Streptococcus pyogenes M1 GAS"}, "[3]": {"assay": "HepG2 cell cytotoxicity, dose response, cytotoxicity control for non-replicating M. tuberculosis project (AID 489018)", "type": "functional", "conditions": "Mycobacterium tuberculosis"}, "[4]": {"test_system": "Streptococcus sp. 'group A'", "assay": "growth inhibition of control SK(-) GAS strain, dose response, counter-screen for streptokinase expression inhibitor project, luminescence, kanamycin, BacTiterGlo, confirmation (AID 1900)", "type": "functional, organism-based"}, "[5]": {"assay": "THP-1 cell cytotoxicity, dose response, cytotoxicity control for non-replicating M. tuberculosis project (AID 489025)", "type": "functional"}, "[6]": {"assay": "Vero E6 cell cytotoxicity, dose response, cytotoxicity control for non-replicating M. tuberculosis project, secondary assay (AID 492998)", "type": "functional, VeroE6", "conditions": "Vero C1008"}, "cells": {"assay": "cells", "type": "functional"}, "Streptococcus": {"test_system": "Streptococcus", "assay": "Group A Streptococcus viability loss, dose response, counter-screen for streptokinase expression inhibitor project, luminescence, BacTiterGlo (AID 1915);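 also: potency for reduction of bacterial viability or growth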", "type": "functional, organism-based"}, "[7]": {"biological_target": "Delta-type opioid receptor (Homo sapiens, UniProt P41143)", "assay": "SAR Analysis of Antagonists of the DOR Receptor using an Image-Based Assay - Set 3. [Related pubchem assays (depositor defined):AID1777, AID1785]", "type": "functional"}, "[8]": {"biological_target": "T4, Kappa-type opioid receptor (Homo sapiens, UniProt P41145)", "T4 sequence (P41145 whole entry)": "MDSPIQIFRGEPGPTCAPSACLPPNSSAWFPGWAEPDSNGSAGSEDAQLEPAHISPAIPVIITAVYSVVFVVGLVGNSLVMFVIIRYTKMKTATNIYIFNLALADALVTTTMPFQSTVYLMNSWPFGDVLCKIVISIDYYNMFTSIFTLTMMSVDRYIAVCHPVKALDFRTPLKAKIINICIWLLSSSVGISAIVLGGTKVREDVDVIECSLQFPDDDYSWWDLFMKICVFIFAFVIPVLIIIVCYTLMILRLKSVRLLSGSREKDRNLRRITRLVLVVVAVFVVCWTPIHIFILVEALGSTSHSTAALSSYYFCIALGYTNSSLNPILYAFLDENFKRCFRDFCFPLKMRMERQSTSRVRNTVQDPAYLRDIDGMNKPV", "assay": "SAR analysis of Antagonists of the Kappa Opioid Receptor (KOR) using an Image-Based Assay - Set 3. [Related pubchem assays (depositor defined):AID1777, AID1785]", "type": "functional"}, "[9]": {"biological_target": "T4, Kappa-type opioid receptor", "assay": "SAR analysis of small molecule antagonists of the kappa opioid receptor via a luminescent beta-arrestin assay - Set 3. [Related pubchem assays (depositor defined):AID1777, AID1778, AID1785, AID1786, AID1966, AID2133, AID2136, AID2285, AID2495]", "type": "functional"}, "Mu-type opioid receptor": {"biological_target": "Mu-type opioid receptor (Homo sapiens, UniProt P35372)", "assay": "SAR Analysis of Antagonists of the MOR Receptor using an Image-Based Assay - Set 3. [Related pubchem assays (depositor defined):AID1777, AID1785, AID1786, AID1966, AID2133, AID2136, AID2284, AID2285, AID2420]", "type": "functional"}, "Troponin, cardiac muscle": {"biological_target": "Troponin, cardiac muscle (Homo sapiens, UniProt P19429+P45379+P63316)", "assay": "Fluorescence-based biochemical high throughput dose response assay for activators of the calcium sensitivity of cardiac Regulated Thin Filaments (RTF). [Related pubchem assays (depositor defined):AID493008, AID493018, AID504382, AID504383]", "type": "protein-complex assay"}, "[10]": {"biological_target": "Photoreceptor-specific nuclear receptor (Homo sapiens, UniProt Q9Y5X4)", "sequence (Q9Y5X4 whole entry)": "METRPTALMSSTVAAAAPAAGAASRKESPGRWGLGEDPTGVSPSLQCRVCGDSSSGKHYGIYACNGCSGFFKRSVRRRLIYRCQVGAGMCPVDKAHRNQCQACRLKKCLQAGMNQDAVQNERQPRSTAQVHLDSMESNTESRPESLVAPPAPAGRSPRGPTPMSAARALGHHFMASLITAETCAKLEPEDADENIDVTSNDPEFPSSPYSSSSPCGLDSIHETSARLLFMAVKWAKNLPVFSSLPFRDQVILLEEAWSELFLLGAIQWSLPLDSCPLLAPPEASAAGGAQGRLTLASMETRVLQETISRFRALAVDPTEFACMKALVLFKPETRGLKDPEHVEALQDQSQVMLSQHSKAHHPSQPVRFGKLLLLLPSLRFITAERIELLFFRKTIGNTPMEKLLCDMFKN", "type": "functional"}, "Beta-galactosidase": {"biological_target": "Beta-galactosidase (Escherichia coli, UniProt Q8VNN2)", "sequence (Q8VNN2 whole entry)": "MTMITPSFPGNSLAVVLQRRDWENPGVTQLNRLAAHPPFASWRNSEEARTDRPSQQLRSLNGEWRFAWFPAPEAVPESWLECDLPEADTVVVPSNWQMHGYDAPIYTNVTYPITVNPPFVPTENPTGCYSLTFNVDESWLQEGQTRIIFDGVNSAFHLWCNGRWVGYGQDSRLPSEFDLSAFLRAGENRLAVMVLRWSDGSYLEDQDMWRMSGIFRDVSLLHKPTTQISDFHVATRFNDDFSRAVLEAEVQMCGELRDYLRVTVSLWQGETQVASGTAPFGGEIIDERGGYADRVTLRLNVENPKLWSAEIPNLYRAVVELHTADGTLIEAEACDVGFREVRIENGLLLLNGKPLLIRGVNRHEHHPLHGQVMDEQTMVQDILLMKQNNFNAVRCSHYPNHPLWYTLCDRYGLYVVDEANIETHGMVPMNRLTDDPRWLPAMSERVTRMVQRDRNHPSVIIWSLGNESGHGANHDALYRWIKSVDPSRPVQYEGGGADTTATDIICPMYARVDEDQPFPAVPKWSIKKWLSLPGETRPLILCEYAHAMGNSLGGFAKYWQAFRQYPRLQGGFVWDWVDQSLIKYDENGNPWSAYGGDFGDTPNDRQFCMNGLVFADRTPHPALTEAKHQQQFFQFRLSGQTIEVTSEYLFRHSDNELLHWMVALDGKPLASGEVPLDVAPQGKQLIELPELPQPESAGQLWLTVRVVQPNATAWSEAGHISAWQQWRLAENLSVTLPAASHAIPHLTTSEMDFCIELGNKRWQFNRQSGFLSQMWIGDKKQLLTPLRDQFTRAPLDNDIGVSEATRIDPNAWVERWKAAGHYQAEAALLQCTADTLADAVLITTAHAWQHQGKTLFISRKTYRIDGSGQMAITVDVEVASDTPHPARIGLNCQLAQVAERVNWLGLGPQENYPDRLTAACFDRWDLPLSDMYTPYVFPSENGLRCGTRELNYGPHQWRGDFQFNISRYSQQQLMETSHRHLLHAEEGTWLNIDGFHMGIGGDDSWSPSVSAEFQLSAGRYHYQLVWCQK", "assay": "beta-galactosidase enzyme inhibitors and activators, dose response, artefact control for CCR6 antagonist project, biochemical, E. coli enzyme, set 3 (AID 504712)", "type": "functional"}, "[11]": {"biological_target": "Peroxisome proliferator-activated receptor gamma/Nuclear receptor corepressor 2 (Homo sapiens, UniProt P37231+Q9Y618)", "sequence (P37231 whole entry)": "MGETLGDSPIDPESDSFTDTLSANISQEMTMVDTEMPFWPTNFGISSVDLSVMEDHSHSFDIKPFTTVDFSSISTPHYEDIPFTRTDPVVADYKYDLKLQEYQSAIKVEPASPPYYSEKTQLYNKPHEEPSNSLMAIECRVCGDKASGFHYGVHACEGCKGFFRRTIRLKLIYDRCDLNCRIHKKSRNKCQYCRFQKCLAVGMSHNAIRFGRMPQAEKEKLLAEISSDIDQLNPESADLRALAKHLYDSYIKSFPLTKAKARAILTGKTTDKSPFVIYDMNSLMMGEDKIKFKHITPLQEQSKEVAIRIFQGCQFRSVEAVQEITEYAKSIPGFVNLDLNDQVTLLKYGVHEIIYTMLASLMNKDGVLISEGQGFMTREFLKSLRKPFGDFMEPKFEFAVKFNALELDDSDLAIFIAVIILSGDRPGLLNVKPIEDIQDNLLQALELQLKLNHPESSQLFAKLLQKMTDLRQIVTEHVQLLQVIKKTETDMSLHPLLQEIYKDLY", "sequence (Q9Y618 whole entry)": "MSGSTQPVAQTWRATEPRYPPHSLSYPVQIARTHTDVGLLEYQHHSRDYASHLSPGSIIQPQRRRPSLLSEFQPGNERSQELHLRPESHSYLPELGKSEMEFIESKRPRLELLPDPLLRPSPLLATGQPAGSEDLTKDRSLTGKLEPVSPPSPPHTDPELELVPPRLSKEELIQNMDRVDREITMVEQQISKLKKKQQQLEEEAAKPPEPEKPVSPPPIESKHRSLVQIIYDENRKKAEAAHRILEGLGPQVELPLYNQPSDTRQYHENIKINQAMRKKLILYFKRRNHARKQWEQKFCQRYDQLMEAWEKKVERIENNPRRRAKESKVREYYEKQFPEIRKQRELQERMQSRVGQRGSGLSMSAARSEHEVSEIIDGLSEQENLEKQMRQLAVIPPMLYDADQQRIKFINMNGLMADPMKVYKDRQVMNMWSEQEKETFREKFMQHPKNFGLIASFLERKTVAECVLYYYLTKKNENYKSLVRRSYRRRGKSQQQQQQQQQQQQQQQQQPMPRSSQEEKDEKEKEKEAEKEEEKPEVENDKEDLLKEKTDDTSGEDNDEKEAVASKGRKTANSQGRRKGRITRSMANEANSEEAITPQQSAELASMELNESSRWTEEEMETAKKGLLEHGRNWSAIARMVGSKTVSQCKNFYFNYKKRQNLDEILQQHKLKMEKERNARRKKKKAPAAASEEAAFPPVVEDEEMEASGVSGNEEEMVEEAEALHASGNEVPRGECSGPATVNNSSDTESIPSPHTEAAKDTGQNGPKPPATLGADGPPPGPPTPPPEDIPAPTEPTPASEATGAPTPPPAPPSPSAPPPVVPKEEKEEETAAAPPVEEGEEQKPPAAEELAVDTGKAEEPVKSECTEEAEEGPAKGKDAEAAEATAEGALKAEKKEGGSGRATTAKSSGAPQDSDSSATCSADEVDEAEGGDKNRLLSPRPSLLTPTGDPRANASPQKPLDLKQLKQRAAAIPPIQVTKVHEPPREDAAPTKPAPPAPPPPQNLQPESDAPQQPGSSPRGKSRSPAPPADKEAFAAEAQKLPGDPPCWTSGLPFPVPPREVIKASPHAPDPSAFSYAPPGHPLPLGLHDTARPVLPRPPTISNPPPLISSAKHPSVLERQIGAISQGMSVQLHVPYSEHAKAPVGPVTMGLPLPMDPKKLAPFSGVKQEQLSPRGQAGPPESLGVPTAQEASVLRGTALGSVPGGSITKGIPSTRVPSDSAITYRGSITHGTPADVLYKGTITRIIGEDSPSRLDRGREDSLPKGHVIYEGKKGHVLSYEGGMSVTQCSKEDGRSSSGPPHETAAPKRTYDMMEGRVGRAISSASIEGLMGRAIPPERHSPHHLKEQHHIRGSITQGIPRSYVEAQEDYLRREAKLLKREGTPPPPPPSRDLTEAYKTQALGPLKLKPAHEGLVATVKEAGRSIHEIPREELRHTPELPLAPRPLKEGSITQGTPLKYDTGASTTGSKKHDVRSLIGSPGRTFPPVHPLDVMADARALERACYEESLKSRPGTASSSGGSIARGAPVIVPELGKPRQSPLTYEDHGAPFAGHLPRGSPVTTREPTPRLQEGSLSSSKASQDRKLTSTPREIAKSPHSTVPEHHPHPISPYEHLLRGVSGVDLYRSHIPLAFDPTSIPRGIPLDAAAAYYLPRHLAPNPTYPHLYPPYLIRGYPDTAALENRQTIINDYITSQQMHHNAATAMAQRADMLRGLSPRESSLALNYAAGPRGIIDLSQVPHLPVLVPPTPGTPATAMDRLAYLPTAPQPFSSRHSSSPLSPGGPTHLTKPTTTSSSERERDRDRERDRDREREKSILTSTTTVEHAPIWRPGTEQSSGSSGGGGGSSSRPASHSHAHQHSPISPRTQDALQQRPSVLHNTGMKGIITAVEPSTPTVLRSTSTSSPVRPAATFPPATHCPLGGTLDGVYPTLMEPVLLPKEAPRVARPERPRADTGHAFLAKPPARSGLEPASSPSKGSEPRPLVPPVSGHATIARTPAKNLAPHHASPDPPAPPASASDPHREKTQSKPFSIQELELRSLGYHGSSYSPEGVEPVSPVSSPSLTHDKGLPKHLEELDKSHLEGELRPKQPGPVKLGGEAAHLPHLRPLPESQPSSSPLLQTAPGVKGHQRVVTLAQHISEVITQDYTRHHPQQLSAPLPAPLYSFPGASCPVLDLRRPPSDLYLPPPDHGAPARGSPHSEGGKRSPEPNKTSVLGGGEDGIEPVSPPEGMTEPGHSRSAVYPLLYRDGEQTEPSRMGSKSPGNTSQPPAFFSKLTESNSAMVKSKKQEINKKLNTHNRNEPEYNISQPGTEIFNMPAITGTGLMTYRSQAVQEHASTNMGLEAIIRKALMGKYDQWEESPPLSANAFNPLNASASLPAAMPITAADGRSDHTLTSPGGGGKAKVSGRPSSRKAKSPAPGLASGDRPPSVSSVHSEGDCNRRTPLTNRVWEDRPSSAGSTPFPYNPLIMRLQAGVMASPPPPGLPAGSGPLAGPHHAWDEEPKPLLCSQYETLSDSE", "type": "functional"}}, "note": "Activity calls are given as the source filed them.", "data": [{"smiles": "CC1(C(=O)NC(=S)NNC(=O)c2ccncc2)CCCCC1", "values": [{"measurement": "EC50", "setting": "[1]", "value": "11.9 µM (active)"}, {"measurement": "CC50", "setting": "Vero", "value": "> 25 µM (active)"}, {"measurement": "EC50", "setting": "[2]", "value": "4.91 µM (active)"}, {"measurement": "EC50", "setting": "Streptokinase A", "value": "> 150 µM (not active)"}, {"measurement": "CC50", "setting": "[3]", "value": "> 20 µM (active)"}, {"measurement": "EC50", "setting": "[4]", "value": "1.59 µM (active)"}, {"measurement": "CC50", "setting": "[5]", "value": "9 µM (active)"}, {"measurement": "CC50", "setting": "[6]", "value": "13.4 µM (active)"}, {"measurement": "IC50", "setting": "cells", "value": "1.06 µM (active)"}, {"measurement": "EC50", "setting": "Streptococcus", "value": "21.1 µM (active)"}]}, {"smiles": "COc1ccc(S(=O)(=O)NCc2ccc(C(=O)NCCN(Cc3ccc(Br)cc3)C(C)C)cc2)cc1", "values": [{"measurement": "IC50", "setting": "[7]", "value": "> 32 µM (inactive)"}, {"measurement": "IC50", "setting": "[8]", "value": "1.38 µM (active)"}, {"measurement": "IC50", "setting": "[9]", "value": "13.5 µM (inactive)"}, {"measurement": "IC50", "setting": "Mu-type opioid receptor", "value": "> 32 µM (inactive)"}]}, {"smiles": "N=C1c2ccccc2CN1c1ccc(S(=O)(=O)N2CCCCC2)cc1", "values": [{"measurement": "EC50", "setting": "Troponin, cardiac muscle", "value": "> 71.5 µM (inactive)"}]}, {"smiles": "CCN(CC(=O)NC(C)(C)C)Cc1nc(O)c2cc(Br)cc(Br)c2n1", "values": [{"measurement": "IC50", "setting": "[10]", "value": "> 39.8 µM (not active)"}, {"measurement": "IC50", "setting": "Beta-galactosidase", "value": "> 66.6 µM (inactive)"}, {"measurement": "IC50", "setting": "[11]", "value": "15 µM (not active)"}]}]}
